Data as given in US10959998B2, “Pharmaceutical use and pharmaceutical composition of pyrroloquinoline quinine, its derivatives and/or its salts” (priority 2015, dated 2021).

Key:
[1] = system: endometrial stromal cells; test: Transwell/matrigel invasion assay; format: cell-based, human; conditions: 48 h
Experimental: 500 μL culture medium containing 10% FBS was added into each wells in a 24-well plate. Transwell chambers were treated with 0.3 mg/ml FN diluted by serum free 1640 culture medium (BD company). The cells were seeded (5×10^4 cells/chamber) in the transwell up-chamber, in which 100 μL media were kept finally. The cells were cultured in an incubator at 37° C. in an air atmosphere containing 5% CO2 for the specified time. The chambers were taken out, stained with 0.1% crystal violet, and were photographed. Crystal violet on the membrane was dissolved with 300 μL of 33% Glacial acetic acid. The optical absorption was measured at wavelength 573 nm. On the ice, 100 μL matrigel was taken in with pre-chilled micropipette, transferred into 300 ul pre-chilled serum free medium. The mixture solution was thoroughly mixed to achieve uniform. 25 ul of the previous diluted matrigel was put into transwell up-chamber, covering the whole carbon ester membrane. The transwell was incubated at 37° C., 30 min for Matrigel gelling. The rest treatment was the same as that in Transwell assay.

[2] = system: ectopic endometrial stromal cells; test: MTT cell proliferation of ectopic endometrial stromal cells; format: cell-based, human
Experimental: Endometrial tissues were surgically isolated from patients with chocolate cyst of ovary, washed 2 to 3 times with PBS supplemented with antibiotics in ultra-clean cabinet, and cut into tiny pieces (about 1 mm^3 in size) with aseptic scissors. The tissues were digested with 1 mg/ml collagenase type I for 30 to 90 min at 37° C., and continually digested with Dnase I (final concentration of 15 U/ml, 2% Dnase I) for another 30 min. The digested tissues were filtered thorough 60-mesh stainless steel filter cell strainer to remove the undigested cell tissues, and were further filtered with 200- or 400-mesh strainer. The filtered solution was centrifuged at 1000 rpm for 5 min. After removing the supernatants, the cells were washed once with culture medium compounded by DMEM/F12 (1:1 v/v) and 10% fetal bovine serum, re-suspended in the culture medium, and seeded in 6-well tissue culture plate or T25 tissue culture flasks with an appropriate density. After 24 hours incubation, the culture medium was changed to remove the non-adherent blood cells, endothelial cells, macrophages and other miscellaneous cells. After primary human endometrial stromal cells were grown to reach 90% confluence, the cells were digested with 0.25% trypsin for 4 to 6 min, and then subcultured with a split ratio of 1:2 to 1:3. Vimentin which expresses specifically in stromal cells was detected by immuno-fluorescence to measure the cell purity. The cells of purity >95% were used in the following experiments. Primary ectopic endometrial stromal cells of human were subcultured and the subcultured cells of the 3th to 6th passages were chosen as experimental subjects. The cells in logarithmic growth phase were […] and incubated in the cell culture plate at a density of 50%˜60% (i.e. 2×10^4 cells/well). After growing adherent on the wall for 24 hours, the cultured cells were divided into groups and each group was given different doses of PQQ. 20 μL MTT (5 mg/ml in PBS, pH=7.4) was added to each well at indicated time points. The cells were incubated in an incubator at 37° C. in a 5% CO2 atmosphere for 4 h. At the end of incubation, the culture supernatant in each cell was carefully aspirated away. 150 μL DMSO was added to each well. Then the wells were shaken with Orbital shaker for 10 min. The absorbance of each cell was detected at wavelength 490 nm. Finally, the cell proliferation curve was drawn. Primary ectopic endometrial stromal cells were cultured and the subcultured cells of the 3th to 6th passage were chosen as experimental subjects. The cells in logarithmic growth phase were […] and incubated in the cell culture plate at a of 50%˜60% (e.g. 2×10^4 cells/well). The cells grew adhering to the wall for 24 hours before being treated with drugs. The cells were divided into groups and each group was given different dose of PQQ. At indicated time point, 20 μL […] (5 mg/ml in PBS, pH=7.4) was added to every well. The cells were then incubated in an incubator at 37° C. in a 5% CO2 atmosphere for 4 h. After terminating incubation, the culture supernatant in each cell was carefully aspirated away, but formazan crystals should not be aspirated away in any case. 150 μL DMSO was added to each well respectively. All the wells were shaken with Orbital shaker for 10 min to make the crystals adequately solubilized. The absorbance of each cell was detected at wavelength 490 nm. Finally, the cell proliferation curve was drawn.

O=C(O)c1cc(C(=O)O)c2c(n1)C(=O)C(=O)c1cc(C(=O)O)[nH]c1-2 [PQQ, pyrroloquinoline quinone]
inhibitory effect on cell invasion compared to the control group ([1]; 300 nM PQQ, statistically meaningful): definite inhibitory effect
reduction of invasion ability of endometrial stromal cells ([1]; 3 μM PQQ): 35%
inhibitory effect on cell invasion compared to the control group ([1]; PQQ): not obvious
cell proliferation compared with the control group ([2]; PQQ 3 um, from 48 h after drug treatment, p<0.01): significantly inhibit cell proliferation
cell proliferation compared with the control group ([2]; PQQ 30 nm, p>0.05): a certain inhibitory effect, but not significant
cell proliferation compared with the control group ([2]; PQQ 300 nm, from 48 h after drug treatment, p<0.01): significantly inhibit cell proliferation
